Patent publication US20090123512A1, “Quorum Sensing Modulators” (priority 2005, published 2009)

Tested on: MW1
Test: Elastase production in culture supernatant, MW1
Type: cell-based, Pseudomonas aeruginosa
Protocol: Elastase activity was measured according to the procedure described by Pearson et al. in J. Bacteriol. 179:5756-67 (1997) and pyocyanin concentration was measured according to the procedure described by Essar et al. in J. Bacteriol. 172:884-900 (1990). Protocols were modified slightly to be consistent with the conditions of transcriptional profiling. Cultures were grown in LB amended with 50 mM MOPS pH 7.0. Mid-log cultures were either subcultured directly (MW1) or washed twice with medium (PAO1) and then subcultured to an absorbance at 600 nm (A600) of 0.01. Cultures (1 mL) were grown in the presence of test compounds in 16 mm tubes at 37° C., 250 rpm.
For elastase activity, cultures were grown for 6 hours. Cells were removed by centrifugation and the culture supernatant filtered through a 0.2 μm filter. A 100 μL volume of filtered supernatant was added to 900 μL of 5 mg/mL Elastin Congo Red (Elastin Products Company; Owensville, Mo.) in 1 mM CaCl2, 100 mM Tris HCL, pH 7.2. Reactions were incubated at 37° C., 250 rpm for 18 h. Reactions were stopped by the addition of 100 μL 0.12 M EDTA, undigested substrate removed through centrifugation and the absorbance at 495 nm measured.

| Structure (SMILES) | elastase activity in supernatant restored by exogenous signal (MW1, 0.3 μM (half-maximal) 3-oxo-C12-HSL alone) | elastase activity in supernatant restored by exogenous signal (MW1, saturating 3-oxo-C12-HSL (25 μM) in addition to saturating C4-HSL (25 μM)) | elastase activity in supernatant restored by exogenous signal (MW1, 25 μM C4-HSL added to 0.3 μM 3-oxo-C12-HSL) |
| --- | --- | --- | --- |
| CCCCCCCCCC(=O)CC(=O)NC1CCOC1=O (stereo not drawn) [3-oxo-C12-HSL, 3-oxo-dodecanoyl homoserine lactone] | restored about one third of the achievable activity | did not increase elastase activity further | – |
| CCCC(=O)N[C@H]1CCOC1=O [Compound C4-HSL, butyryl homoserine lactone] | – | – | maximal elastase activity was measured |
